From patent US20180327354A1, “Unnatural Analogues of Calcitriol and Uses Thereof” (Vidasym, Inc., priority 2009, published 2018) come the findings set out here.

The subject of data set [1] is CD14. Description: CD14 expression induction in HL-60 promyelocytic leukemia cells (real-time RT-PCR). The data set is classed as cell-based. The conditions noted are these: Homo sapiens, HL-60 cells. On the procedure:
(§1) Some compounds were tested in HL-60 promyelocytic leukemia cells and a primary culture of human coronary artery smooth muscle cells (HCASMC) for CYP24A1 induction. It is well documented that CYP24A1 has a VDRE in its promoter region and is a specific target gene of VDR (Meyer et al., 2007, J Biol Chem 282: 22344-22352). […] Compounds also were tested in HCASMC for their effects in inducing VDR. To assess the suitability of a compound for modulating immune responses, compounds were tested in HL-60 for their effects in inducing CD14 expression. To assess the suitability of a compound for treating thrombosis, compounds also were tested in HCASMC for their effects in modulating thrombomodulin and thrombospondin-1.
(§2) Compounds are tested in human HL-60 promyelocytic leukemia cells to assess their potency in inducing the expression of CYP24A1 and CD14. HL-60 cells are cultured in IMDM supplemented with 20% heat-inactivated fetal bovine serum at 37° C. in a humidified 5% CO2-95% air atmosphere. Cells are plated into 6 well plates and treated with test agent for 24 h. Cells are lysed with the addition of 1 mL of Trizol and RNA prepared according to the manufacturer's protocol.
(§3) Real-time reverse transcription-PCR is performed with the forward and reverse PCR primers and 250 nM of the TAQMAN™ probe specifically designed for CYP24A1 or CD14. (A TAQMAN™ probe is comprised of a fluorophore covalently attached to the 5′-end of the oligonucleotide probe and a quencher at the 3′-end.) After the data acquisition, the CYP24A1 or CD14 mRNA expression level is normalized to the GAPDH mRNA level. FIGS. 2A and 2B show the results from a typical CYP24A1 (FIG. 2A) and CD14 (FIG. 2B) expression study.

In data set [2] the test system is 5/6 nephrectomized uremic rats. The data set is described as follows: Left ventricular hypertrophy in 5/6 nephrectomized uremic rats. The data set is classed as in vivo, Sprague Dawley rats. The conditions noted are these: 5/6 NX rats; for cardiomyocyte morphology: hematoxylin-eosin. On the procedure:
The experimental conditions using the 5/6 (subtotal) nephrectomized rats were as described above. Twenty-four hours after the last dose, the rats were anesthetized with pentobarbital sodium (35 mg/kg, i.p.). The animals were sacrificed by cervical dislocation. The hearts were taken and washed with cold saline. After removing the residual saline with filter paper, the weight of the freshly dissected hearts and left ventricles were measured, and the ratio of left ventricle weight to body weight (LVW/BW) and/or left ventricle weight to heart weight (LVW/HW) were calculated. Thereafter, the left ventricles were rapidly put into liquid nitrogen until ready for histological and immunohistochemical analysis.
To examine the cardiomyocyte morphology, the left ventricular tissue was fixed in a 4% formaldehyde-phosphate-buffered saline (pH 7.4) solution overnight. The samples were embedded in wax and cut into 4 μm sections. The sections were stained with hematoxylin-eosin and examined under a microscope.
To determine the diameter of cardiomyocytes, a previously published method was followed (Xiang et al., 2005, Am J Physiol Endocrinol Metab 288: E125-132). The sections of left ventricles were stained with FITC-labeled wheat germ agglutinin (1:5 dilution) for 2 h at room temperature and then examined under a fluorescence microscope to visualize the myocyte membrane. The relative size of the cardiomyocytes was quantified by measuring the diameter of the myocytes, which was the distance between the two plasma membranes of a cell in longitudinal section. The measurement was done using ImageJ software. Data were obtained from 30 cells randomly selected from 5-10 microscopic fields of left ventricle slides.
Group mean±SEM are presented. Differences between SHAM, vehicle, and treated animals were assessed using a t-test, a one-way ANOVA followed by a Dunnett's post-hoc test, or a two-way ANOVA, followed by a Bonferonni post-hoc test. Similar to the human CKD condition, the 5/6 (subtotal) nephrectomized rats are known to develop left ventricular hypertrophy (Wolf et al., 2000, Journal of Cardiovascular Pharmacology 36: S348-350). Some animals were sacrificed before treatment to evaluate the development of left ventricular hypertrophy.

Data set [3] has as its system 5/6 nephrectomized uremic rats. The data set is described as follows: Proteinuria in 5/6 nephrectomized uremic rats. The data set is classed as in vivo, Sprague Dawley rats. The conditions noted are these: 5/6 NX rats, 3×/week, i.p. for 2 weeks, before versus after treatment. On the procedure: The experimental conditions using the 5/6 (subtotal) nephrectomized rats were as described above. Urinary protein excretion was determined by urinary collection over a period of 24 h in metabolic cages at two time points: 24 h before the first dose and 24 hr after the last dose. Each animal was placed in a metabolic cage and urine was collected during a period of 24 h. Urinary protein concentration was determined by the biuret method (Morozova and Baryshnikova, 1991, Lab Delo 2:23-5). Total protein excretion per day was calculated by multiplying urinary protein concentration by total urine volume produced during the 24 h period.
Group mean±SEM are presented. Differences before versus after treatment were assessed using a t-test. Differences between SHAM, vehicle, and treated animals were assessed using a one-way ANOVA followed by a Dunnett's post-hoc test.

The nature of data set [4]: Maximal absorbance wavelength and extinction coefficient (spectrophotometer scan). The data set is classed as physicochemical. The conditions noted are these: for maximal absorbance wavelength / extinction coefficient: 100 μM in 50:50 de-ionized water and ethanol; for extinction coefficient: in M-1·cm-1 (unit assumed). On the procedure:
To determine the maximal absorbance wavelength (ODmax) and the extinction coefficients for the compounds, each compound is diluted in a 50:50 solution (by volume) of de-ionized water and ethanol at 100 μM and scanned by a spectrophotometer.

Data set [5] concerns CYP24A1. The data set is described as follows: CYP24A1 expression induction in HL-60 promyelocytic leukemia cells (real-time RT-PCR). The data set is classed as cell-based. The note with it: Homo sapiens, HL-60 cells. On the procedure: as §1, §2, §3
Data set [6] concerns VDR. Description: VDR expression induction in primary culture of human coronary artery smooth muscle cells. The data set is classed as cell-based. The note with it: HCASMC. On the procedure: Compounds were tested in a primary culture of HCASMC to assess their potency in inducing the expression of CYP24A1 and VDR.
Primary culture of HCASMC was grown in smooth muscle growth medium SmGM-2 containing 5.5 mM glucose, 5% FBS, 50 μg/ml gentamicin, 50 ng/ml amphotericin-B, 5 μg/ml insulin, 2 ng/ml hFGF, and 0.5 ng/ml hEGF at 37° C. in a humidified 5% CO2-95% air. Cells were grown to >80% confluence and used within five passages.
Cells were plated into 6 well plates and treated with test agent for 24 h. Cells were lysed with the addition of 1 mL of Trizol and RNA prepared according to the manufacturer's protocol.
Real-time reverse transcription-PCR was performed with the forward and reverse PCR primers and […] of the TAQMAN™ probe specifically designed for CYP24A1 or VDR. (A TAQMAN™ probe is comprised of a fluorophore covalently attached to the 5′-end of the oligonucleotide probe and a quencher at the 3′-end.) After the data acquisition, the CYP24A1 or VDR mRNA expression level was normalized to the GAPDH mRNA level. […] Group mean±STDEV (standard deviation) are presented.

The mark [7] stands for this setting: 24 h, mRNA normalized to GAPDH, Table 3 summary, some values average of 3 or more determinations, read-out: CD14 EC50.
Setting [8] is: 2 weeks of treatment, 8 weeks after surgery.
The mark [9] stands for this setting: 24 h, mRNA normalized to GAPDH, Table 3 summary, some values average of 3 or more determinations, read-out: CYP24A1 EC50.
Where [10] appears, read: 24 h, Table 4 summary, some values average of 2 or more determinations, read-out: EC50 for VDR induction.

“Also recorded” adds a separate entry of the source. Where two headings read alike, the source gives them in different places.

As for `C=C1[C@H](O)CC(=C/C=C2\CCCC3(C)C2CCC3[C@@H](C)OCCC(O)(CC)CC)C[C@H]1O` (stereo partly drawn) [Vida-11, (1R,3R)-5-((E)-2-((1S,3αS,7αS)-1-((R)-1-(3-ethyl-3-hydroxypentyloxy)ethyl)-7α-methyldihydro-1H-inden-4(2H, 5H, 6H, 7H, 7αH)-ylidene)ethylidene)-2-methylenecyclohexane-1,3-diol], the values for the EC50 in data set [1] (setting [7]), in data set [5] (setting [9]) and in data set [6] (setting [10]) were 0.9 nM, 0.8 nM and 1.4 nM, respectively. For the same compound, in data set [2] (setting [8]), the “effect on LVW/BW (left ventricle weight to body weight)” value is given as “reduced LVW/BW at the two lower doses, but not at 0.16 μg/kg”. Also, the “proteinuria (urinary protein concentration and total protein per day)” value in data set [3] is recorded as “reduce proteinuria; also recorded: significantly reduced proteinuria”. This compound returned a maximal absorbance wavelength in data set [4] of 254 nm. In data set [4], this compound displayed an extinction coefficient of 60100.

Regarding `C=C1[C@H](O)CC(=C/C=C2\CCCC3(C)C2CCC3[C@@H](C)OC[C@H](C)C(C)(C)O)C[C@H]1O` (stereo partly drawn) [Vida-5, (1R,3R)-5-((E)-2-((3αS,7αS)-1-((R)-1-((S)-3-hydroxy-2,3-dimethylbutoxy)ethyl)-7α-methyldihydro-1H-inden-4(2H,5H,6H, 7H, 7αH)-ylidene)ethylidene)-2-methylenecyclohexane-1,3-diol], the EC50 in data set [1] (setting [7]) was 3.7 nM; in data set [1] (typical study, FIG. 2B, read-out: EC50 for inducing CD14 expression), 4.1 nM; in data set [5] (setting [9]), 7.3 nM; in data set [5] (typical study, FIG. 2A, read-out: EC50 for inducing CYP24A1 expression), 5.6 nM; in data set [6] (setting [10]), 3.2 nM; in data set [6] (typical study, FIG. 5B, read-out: EC50 for inducing VDR expression), 1.3 nM. The cardiomyocyte morphology result in data set [2] (0.01 μg/kg) is “improved the morphology of the cardiomyocytes”; in data set [2] (0.16 μg/kg, 3×/week, i.p. for 2 weeks) it was “nearly restored the morphology of the cardiomyocytes back to the Sham level”. Besides, the “effect on LVW/BW” value is listed as “completely normalized LVW/BW” in data set [2] (0.04 μg/kg alone, 3×/week, i.p. for 2 weeks) and “completely normalized LVW/BW” in data set [2] (0.04 μg/kg plus losartan (0.025 mg/ml in drinking water)). Also, the cardiomyocyte diameter result in data set [2] (0.01-0.64 μg/kg, 2 weeks of treatment, FIG. 19) is “decreases cardiomyocytes diameter; also recorded: significantly reduced”. For the same compound, in data set [2] (setting [8]), the “effect on LVW/BW (left ventricle weight to body weight)” value is listed as “significantly reduces; also recorded: dose-dependent effect on reducing”. Also, the “effect on LVW/HW (left ventricle weight to heart weight)” value in data set [2] (setting [8]) is recorded as “significantly reduces; also recorded: dose-dependent effect on reducing”. The “proteinuria (urinary protein concentration and total protein per day)” value in data set [3] was “reduce proteinuria; also recorded: significantly reduced proteinuria”. The same compound registered a maximal absorbance wavelength in data set [4] of 253 nm. In data set [4], this compound came in with an extinction coefficient of 48360. Also, the “maximal absorbance wavelength (ODmax)” value in data set [4] (FIG. 1, typical absorbance profile) stood at 253 nm.

`CCC(O)(CC)CCO[C@H](C)C1CCC2/C(=C/C=C3C[C@@H](O)C4(CC4)[C@H](O)C3)CCCC21C` (stereo partly drawn) [Vida-10, (4R,8R)-6-((E)-2-((1S,7αS)-1-((R)-1-(3-ethyl-3-hydroxypentyloxy)ethyl)-7α-methyldihydro-1H-inden-4(2H,5H,6H,7H,7αH)-ylidene)ethylidene)spiro[2.5]octane-4,8-diol]: the results for the EC50 in data set [1] (setting [7]), in data set [5] (setting [9]) and in data set [6] (setting [10]) were 0.4 nM, 6.8 nM and 0.61 nM, respectively. The “effect on LVW/BW” value in data set [2] (0.16 and 0.64 μg/kg, FIG. 17) was “significantly reduced”. Also, the “effect on LVW/BW (left ventricle weight to body weight)” value in data set [2] (setting [8]) is listed as “dose-dependent effect on reducing”. The compound further returned a maximal absorbance wavelength in data set [4] of 253 nm. This compound registered an extinction coefficient in data set [4] of 46990.
